target: T1, human androgen receptor (Homo sapiens, UniProt P10275); test: Androgen receptor transactivation assay, antiandrogenic activity: inhibition of transactivation in the presence of 1 nM DHT (CHO-AR-pMMTV-LUC cells; Table 4); format: cell-based; conditions: antiandrogenic activity, in the presence of 1 nM DHT; read-out: ant EC50
T1 construct: expressed in transfected cells; host or cells: Chinese hamster ovary (CHO) cells, cell line CHO-AR-pMMTV-LUC 1G12-A5-CA
T1 sequence (P10275 1-920): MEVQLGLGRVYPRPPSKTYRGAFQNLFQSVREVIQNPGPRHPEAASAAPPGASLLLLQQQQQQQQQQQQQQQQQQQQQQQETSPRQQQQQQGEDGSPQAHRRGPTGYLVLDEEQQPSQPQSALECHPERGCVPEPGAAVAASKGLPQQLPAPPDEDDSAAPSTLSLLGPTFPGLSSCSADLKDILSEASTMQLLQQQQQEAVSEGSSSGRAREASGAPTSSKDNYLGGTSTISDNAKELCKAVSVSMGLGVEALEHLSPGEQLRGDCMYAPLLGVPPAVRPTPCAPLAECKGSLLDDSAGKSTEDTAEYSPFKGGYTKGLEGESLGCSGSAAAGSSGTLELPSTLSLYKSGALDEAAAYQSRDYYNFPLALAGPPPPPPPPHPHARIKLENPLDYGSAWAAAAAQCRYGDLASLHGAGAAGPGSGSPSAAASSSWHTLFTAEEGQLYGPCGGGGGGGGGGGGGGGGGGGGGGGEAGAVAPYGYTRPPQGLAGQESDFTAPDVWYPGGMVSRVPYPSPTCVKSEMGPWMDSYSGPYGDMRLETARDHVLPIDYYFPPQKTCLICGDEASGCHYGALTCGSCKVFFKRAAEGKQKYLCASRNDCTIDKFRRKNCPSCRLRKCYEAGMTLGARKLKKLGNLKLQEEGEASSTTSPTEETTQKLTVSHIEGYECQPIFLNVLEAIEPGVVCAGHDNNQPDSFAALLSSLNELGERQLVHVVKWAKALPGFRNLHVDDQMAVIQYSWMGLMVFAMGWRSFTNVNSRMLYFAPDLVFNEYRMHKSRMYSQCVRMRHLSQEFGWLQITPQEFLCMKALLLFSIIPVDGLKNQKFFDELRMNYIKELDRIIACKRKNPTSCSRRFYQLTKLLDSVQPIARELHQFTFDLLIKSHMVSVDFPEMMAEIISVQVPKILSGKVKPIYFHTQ
Method: Compounds were tested for their Androgen Receptor activity in a transactivation assay and in a binding assay.
The (anti-)androgenic activity of test compounds (EC50 and intrinsic activity) was determined in an in vitro bioassay of Chinese hamster ovary (CHO) cells stably transfected with the human androgen receptor expression plasmid and a reporter plasmid in which the MMTV-promoter is linked to the luciferase reporter gene. The cell-line CHO-AR-pMMTV-LUC 1G12-AS-CA is described in Schoonen et al. (2000), Journal of Steroid Biochemistry and Molecular Biology 74(4):213-222. The antiandrogenic activity of a test compound was determined by the inhibition of the transactivation via the androgen receptor of the enzyme luciferase in the presence of 1 nM DHT (5 α-dihydrotestosterone, 17β-hydroxy-5α-androstan-3-one). Intrinsic activity of antiandrogenic activity was determined in the presence of the reference antiandrogen 2-Hydroxy-2-methyl-N-(4-nitro-3-trifluoromethyl-phenyl)-propionamide (Hydroxyflutamide), and set at 100%. For androgenic activity, maximal intrinsic activity in the presence of 100 nM DHT was set at 100%. Table 4 Androgen receptor activity

Structure (SMILES)	EC50 [µM]
CC(C)NC(=O)c1ccc2c(Sc3ccccc3[N+](=O)[O-])cn(Cc3cc(F)cc(F)c3)c2c1 [Compound 46]	> 10
COc1ccc2c(Sc3ccccc3[N+](=O)[O-])cn(Cc3c(C)noc3C)c2c1 [Compound 80]	> 10

same assay, conditions: in the presence of 1 nM DHT; intrinsic activity relative to reference antiandrogen Hydroxyflutamide (set at 100%); read-out: ant efficacy

Structure (SMILES)	Emax [%]
NC(=O)c1ccc2c(Sc3ccccc3[N+](=O)[O-])cn(Cc3cc(F)cc(F)c3)c2c1 [Compound 33, 1-(3,5-Difluoro-benzyl)-3-(2-nitro-phenylsulfanyl)-1H-indole-6-carboxylic acid amide]	< 20
COc1ccc2c(Sc3ccccc3[N+](=O)[O-])cn(Cc3cc(Cl)cc(Cl)c3)c2c1 [Compound 15]	< 20
COc1ccc2c(Sc3ccccc3[N+](=O)[O-])cn(Cc3cc(F)cc(C(F)(F)F)c3)c2c1 [Compound 69]	< 20
COc1ccc2c(Sc3ccccc3[N+](=O)[O-])cn(Cc3ccccc3C#N)c2c1 [Compound 4]	20 to 50
O=[N+]([O-])c1ccccc1Sc1cn(Cc2ccccc2)c2ccccc12 [Compound 90]	< 20
COc1ccc2c(Sc3ccccc3[N+](=O)[O-])cn(Cc3ccc(Cl)s3)c2c1 [Compound 88]	< 20
COc1ccc2c(Sc3ccccc3[N+](=O)[O-])cn(Cc3c(C)noc3C)c2c1 [Compound 80]	20 to 50
COc1ccc2c(Sc3cccc[n+]3[O-])cn(Cc3cc(F)cc(F)c3)c2c1 [Compound 66]	20 to 50
COc1cccc(Cn2cc(Sc3ccccc3[N+](=O)[O-])c3ccc(OC)cc32)c1 [Compound 72]	< 20
COc1ccc2c(Sc3ccccc3[N+](=O)[O-])cn(Cc3cccc(C)c3F)c2c1 [Compound 2]	< 20
COc1ccc2c(Sc3ccccc3[N+](=O)[O-])cn(Cc3ccccc3Cl)c2c1 [Compound 3]	< 20
O=C(c1ccc2c(Sc3ccccc3[N+](=O)[O-])cn(Cc3cc(F)cc(F)c3)c2c1)N1CCOCC1 [Compound 28]	< 20
CC(C)CNC(=O)c1ccc2c(Sc3ccccc3[N+](=O)[O-])cn(Cc3cc(F)cc(F)c3)c2c1 [Compound 42]	< 20
COc1ccc2c(Sc3ccccc3[N+](=O)[O-])cn(Cc3ccccc3C)c2c1 [Compound 7]	< 20
COC(=O)CNC(=O)c1ccc2c(Sc3ccccc3[N+](=O)[O-])cn(Cc3cc(F)cc(F)c3)c2c1 [Compound 39]	< 20
COc1ccc2c(Sc3ccccc3[N+](=O)[O-])cn(Cc3csc(C)n3)c2c1 [Compound 79]	< 20
N#Cc1ccc2c(Sc3ccccc3[N+](=O)[O-])cn(Cc3cc(F)cc(F)c3)c2c1 [Compound 26, 1-(3,5-Difluoro-benzyl)-3-(2-nitro-phenylsulfanyl)-1H-indole-6-carbonitrile]	< 20

Structure (SMILES)	Emax [%]
COc1ccc2c(Sc3ccccc3[N+](=O)[O-])cn(Cc3cc(F)ccc3F)c2c1 [Compound 1]	< 20
COc1ccc2c(S(=O)(=O)c3ccccc3[N+](=O)[O-])cn(Cc3cc(F)cc(F)c3)c2c1 [Compound 62, 1-(3,5-Difluoro-benzyl)-6-methoxy-3-(2-nitro-benzenesulfonyl)-1H-indole]	< 20
CC(=O)Nc1ccc2c(Sc3ccccc3[N+](=O)[O-])cn(Cc3cc(F)cc(F)c3)c2c1 [Compound 58, N-[1-(3,5-Difluoro-benzyl)-3-(2-nitro-phenylsulfanyl)-1H-indol-6-yl]-acetamide]	< 20
COc1ccc2c(Sc3ccccc3[N+](=O)[O-])cn(Cc3cc(F)ccc3C(F)(F)F)c2c1 [Compound 70]	< 20
COCCNC(=O)c1ccc2c(Sc3ccccc3[N+](=O)[O-])cn(Cc3cc(F)cc(F)c3)c2c1 [Compound 38]	< 20
COc1ccc2c(Sc3ccccc3[N+](=O)[O-])cn(Cc3ccc(Cl)cc3)c2c1 [Compound 81]	50 to 80
COc1ccc2c(Sc3ccccn3)cn(Cc3cc(F)cc(F)c3)c2c1 [Compound 65, 1-(3,5-Difluoro-benzyl)-6-methoxy-3-(pyridin-2-ylsulfanyl)-1H-indole]	< 20
O=C(O)c1ccc2c(Sc3ccccc3[N+](=O)[O-])cn(Cc3cc(F)cc(F)c3)c2c1 [Compound 30, 1-(3,5-Difluoro-benzyl)-3-(2-nitro-phenylsulfanyl)-1H-indole-6-carboxylic acid]	< 20
CCNC(=O)c1ccc2c(Sc3ccccc3[N+](=O)[O-])cn(Cc3cc(F)cc(F)c3)c2c1 [Compound 45]	< 20
O=C(NCC1CC1)c1ccc2c(Sc3ccccc3[N+](=O)[O-])cn(Cc3cc(F)cc(F)c3)c2c1 [Compound 41]	< 20
COc1ccc2c(Sc3ccccc3C#N)cn(Cc3cc(F)cc(F)c3)c2c1 [Compound 20, 2-[1-(3,5-Difluoro-benzyl)-6-methoxy-1H-indol-3-ylsulfanyl]-benzonitrile]	< 20
COC(=O)c1ccc2c(Sc3ccccc3[N+](=O)[O-])cn(Cc3cc(F)cc(F)c3)c2c1 [Compound 31, 1-(3,5-Difluoro-benzyl)-3-(2-nitro-phenylsulfanyl)-1H-indole-6-carboxylic acid methyl ester]	< 20
CNC(=O)c1ccc2c(Sc3ccccc3[N+](=O)[O-])cn(Cc3cc(F)cc(F)c3)c2c1 [Compound 47, 1-(3,5-Difluoro-benzyl)-3-(2-nitro-phenylsulfanyl)-1H-indole-6-carboxylic acid methylamide]	< 20
COc1ccc2c(Sc3ccccc3[N+](=O)[O-])cn(Cc3cccnc3)c2c1 [Compound 75]	< 20
O=[N+]([O-])c1ccccc1Sc1cn(Cc2cc(F)cc(F)c2)c2cc(Cl)ccc12 [Compound 25]	< 20
CN(C)CCNC(=O)c1ccc2c(Sc3ccccc3[N+](=O)[O-])cn(Cc3cc(F)cc(F)c3)c2c1 [Compound 36]	< 20
COc1ccc2c(Sc3ccccc3[N+](=O)[O-])cn(Cc3ccc(F)cc3)c2c1 [Compound 83]	< 20

same assay, conditions: read-out: ant efficacy, in the presence of 1 nM DHT; intrinsic activity relative to reference antiandrogen Hydroxyflutamide (set at 100%)

Structure (SMILES)	Emax [%]
CC(C)NC(=O)c1ccc2c(Sc3ccccc3[N+](=O)[O-])cn(Cc3cc(F)cc(F)c3)c2c1 [Compound 46]	20 to 50
CCCNC(=O)c1ccc2c(Sc3ccccc3[N+](=O)[O-])cn(Cc3cc(F)cc(F)c3)c2c1 [Compound 48]	20 to 50

target: T1, human androgen receptor; test: Androgen receptor transactivation assay, androgenic activity in the presence of 0.1 µmol/l onapristone (CHO-AR-pMMTV-LUC cells; Table 5); format: cell-based; conditions: maximal intrinsic activity in the presence of 100 nM DHT set at 1.00
Method: The androgenic activity (EC50, potency, and efficacy) of the compounds in Table 5 was determined in an in vitro bioassay of Chinese hamster ovary (CHO) cells stably transfected with the human androgen receptor expression plasmid and a reporter plasmid in which the MMTV promotor is linked to the luciferase reporter gene. The cell line CHO-AR-pMMTV-LUC 1G12-A5-CA is described in Schoonen et al. (J. Steroid Biochem. Molec. Biol. […]; 74: 213-222). The androgen receptor activity of compounds was determined in the presence of 0.1 µmol/l onapristone. The maximal efficacy in the presence of 100 nmol/l DHT was set as 100%. The potencies are expressed as percentage of DHT activity. Table 5 Androgen receptor activity

Structure (SMILES)	ago efficacy
COc1ccc2c(Sc3ccccc3[N+](=O)[O-])cn(Cc3cncnc3)c2c1 [Compound 115, 6-Methoxy-3-(2-nitro-phenylsulfanyl)-1-pyrimidin-5-ylmethyl-1H-indole]	+ (between 0.50 and 0.80)
CCC(=O)Nc1ccc2c(Sc3ccccc3[N+](=O)[O-])cn(Cc3ccccn3)c2c1 [Compound 102, N-[3-(2-Nitro-phenylsulfanyl)-1-pyridin-2-ylmethyl-1H-indol-6-yl]-propionamide]	+ (between 0.50 and 0.80)
N#Cc1ccc2c(Sc3ccccc3[N+](=O)[O-])cn(Cc3ccncn3)c2c1 [Compound 124, 3-(2-Nitro-phenylsulfanyl)-1-pyrimidin-4-ylmethyl-1H-indole-6-carbonitrile]	++ (≥0.80)
Cn1cnc(S(=O)(=O)Nc2ccc3c(Sc4ccccc4[N+](=O)[O-])cn(Cc4cc(F)cc(F)c4)c3c2)c1 [Compound 108, 1-Methyl-1H-imidazole-4-sulfonic acid [1-(3,5-difluoro-benzyl)-3-(2-nitro-phenylsulfanyl)-1H-indol-6-yl]-amide]	++ (≥0.80)

same assay, conditions: potency expressed as percentage of DHT activity

Structure (SMILES)	ago potency
COc1ccc2c(Sc3ccccc3[N+](=O)[O-])cn(Cc3cncnc3)c2c1 [Compound 115, 6-Methoxy-3-(2-nitro-phenylsulfanyl)-1-pyrimidin-5-ylmethyl-1H-indole]	++ (>5%)
CCC(=O)Nc1ccc2c(Sc3ccccc3[N+](=O)[O-])cn(Cc3ccccn3)c2c1 [Compound 102, N-[3-(2-Nitro-phenylsulfanyl)-1-pyridin-2-ylmethyl-1H-indol-6-yl]-propionamide]	+ (between 1% and 5%)
N#Cc1ccc2c(Sc3ccccc3[N+](=O)[O-])cn(Cc3ccncn3)c2c1 [Compound 124, 3-(2-Nitro-phenylsulfanyl)-1-pyrimidin-4-ylmethyl-1H-indole-6-carbonitrile]	++ (>5%)
Cn1cnc(S(=O)(=O)Nc2ccc3c(Sc4ccccc4[N+](=O)[O-])cn(Cc4cc(F)cc(F)c4)c3c2)c1 [Compound 108, 1-Methyl-1H-imidazole-4-sulfonic acid [1-(3,5-difluoro-benzyl)-3-(2-nitro-phenylsulfanyl)-1H-indol-6-yl]-amide]	+ (between 1% and 5%)
